Source: US20180105492A1, “COMPOUNDS DERIVED FROM 3-ALKYLAMINE-1H-INDOLYL ACRYLATE AND THEIR USE IN THE TREATMENT OF NEURODEGENERATIVE DISEASES” (FUNDACION PARA LA INVESTIGACION BIOMEDICA DEL HOSPITAL …, priority 2014, published 2018)

What was measured:
[1] = Oxygen radical absorbance capacity (ORAC), free radical scavenger capacity; conditions: fluorescein/AAPH, pH 7.4, trolox = 1
Protocol: In order to study the potential antioxidant effect of the compounds of the invention, we performed an oxygen radical absorbance capacity (ORAC) experiment.
For studying the free radical scavenger capacity, we measured the degree peroxide radical inhibition. Thus, scavenger capacity is measured as trolox equivalents and includes the disappearance of free radicals over time and the decrease of oxidative damage at the end of the experiment. The protocol used is based in the protocol developed by Ou and col. (Ou y col., 2001, J Agric Food Chem, 49: 4619-26) partially modified by Dávalos and col. (Davalos y col., 2004, J Agric Food Chem, 52: 48-54). The reaction was performed in phosphate tampon 75 mM (pH 7.4), with a final volume of 200 μL. 150 μL of fluorescein (final concentration of 70 nM) with 25 μL the compound of study at the desired concentration in triplicates, using surface transparent 96 well black plates for measuring fluorescence.
The mixture was pre-incubated during 15 min at 37° C. and, afterwards, 25 μL of a solution containing 2,2′-Azobis(2-amidinopropane) dihydrochloride (AAPH) (final concentration; 12 mM) were rapidly added. Fluorescence was immediately measured using a plate reader fluostar optima, using the filters of emission and excitation of […], respectively. Fluorescence intensity was measured during 90 min. Each compound was measured at 6 different concentrations. In the assay, fluorescein+AAPH in phosphate tampon was added as a blank and a calibration curve was performed using Trolox (1-8 μM). Every variable was prepared in duplicates and at least three independent experiments were performed for each compound. The curves of the compounds (F.I.—time) were normalized respect to the curve of the blank for each experiment and area under the curve (AUC) of the decreasing in fluorescence was calculated. AUC value of each compound was calculated subtracting the AUC of the blank. Regression curves between AUC and concentration of the compound were calculated for each of the samples. ORAC values were expressed as trolox equivalents with respect to the calibration curve of each assay, where the trolox value was considered 1.

SH-SY5Y cells = test: Toxicity in SH-SY5Y neuronal cell line, reduction of cell viability (MTT); assay type: cell-based
Protocol: In order to assess cellular viability, we measured the metabolic reduction of 3-(4,5-Dimethylthiazol-2-yl)-2,5 diphenyltetrazolium bromide (MTT). MTT is an indirect assay to measure cellular viability. It is a colorimetric method based on the reduction of 3-(4,5-Dimethylthiazol-2-yl)-2,5 diphenyltetrazolium. This process is performed by the mitochondrial enzyme succinate-dehydrogenase present in metabolic active cells. Thus, the water-soluble yellow MTT (tetrazolium salt) is transformed into a insoluble purple compound (formazan). Quantity of living cells is directly proportional to the quantity of formazan (Mosmann, 1983, J Immunol Methods, 65: 55-63). […] Therefore, with this assay we can measure cellular surviving and proliferation and also, we can determine the cytotoxicity of potential neuroprotective compounds. In order to assess cellular viability in SH-SY5Y cell line, we added 30 μl/well of MTT (5 mg/mL) and after 2 h, medium was carefully removed to avoid losing the formazan and was diluted in 300 μL of DMSO. Afterwards, samples were transferred to a 96 well-plate and the absorbance was measured at 570 nm using a absorbance/fluorescence reader FluoStar optima®. Every MTT assay was performed in triplicates. Absorbance values obtained with the toxic alone were subtracted to the absorbance values obtained in basal conditions (without treatment). That result was considered as the 100% of cell death and the values obtained with the compounds in the presence of the toxic stimulus were normalized as percentages of that value. For determining the surviving percentage, those percentages of cell death were subtracted to 100. […]
In order to further study its safety profile, the effect of the derivatives on neuronal cells used for neuroprotection experiments, the SH-SY5Y human neuroblastoma cells, was also evaluated. Maintenance and culture methods of this cell line have been described above. For toxicity experiments, SH-SY5Y cells were plated in 96-well plates at the density of 6×10 ^4 cells/well. The experimental conditions were the same as those described for the toxicity study in HepG2 cells.
The results obtained are shown in Table 6 expressed as the lethal dose 50 (LD50), or needed concentration to reduce to 50% the viability of basal conditions (without treatment), measured by the MTT reduction method.

[2] = 24 h incubation, MTT, concentration reducing viability to 50% of basal

Compound	ORAC (Trolox eq.) [1] [Trolox eq.]	SH-SY5Y LD50 (SH-SY5Y cells; [2]) [µM]	SH-SY5Y LD50 (SH-SY5Y cells; human, 24 h) [µM]
CC(=O)NCCc1c[nH]c2ccc(OC(=O)/C=C/c3ccc(F)cc3)cc12 [Compound 9, 3-(2-acetamidoethyl)-1H-indol-5-yl (E)-3-(4-fluorophenyl)acrylate]	3.44 ± 0.67	>100	
CC(=O)NCCc1c[nH]c2ccc(OC(=O)/C=C/c3ccc([N+](=O)[O-])cc3)cc12 [Compound 16, 3-(2-acetamidoethyl)-1H-indol-5-yl (E)-3-(4-nitrophenyl)acrylate]	4.12 ± 0.49	>100	
CC(=O)NCCc1c[nH]c2ccc(OC(=O)/C=C/c3ccccc3)cc12 [Compound 2, 3-(2-acetamidoethyl)-1H-indol-5-yl cinnamate]	4.30 ± 0.50	>100	
CC(=O)NCCc1c[nH]c2ccc(OC(=O)/C=C/c3ccc(C(F)(F)F)cc3)cc12 [Compound 15, 3-(2-acetamidoethyl)-1H-indol-5-yl (E)-3-(4-(trifluoromethyl)phenyl)acrylate]	3.97 ± 0.38	70	
CC(=O)NCCc1c[nH]c2ccc(OC(=O)/C=C/c3ccc(O)cc3)cc12 [Compound 7, 3-(2-acetamidoethyl)-1H-indol-5-yl (E)-3-(4-hydroxyphenyl)acrylate]	9.21 ± 0.81	>100	
CC(=O)NCCc1c[nH]c2ccc(OC(=O)/C=C/c3ccccc3C(F)(F)F)cc12 [Compound 13, 3-(2-acetamidoethyl)-1H-indol-5-yl (E)-3-(2-(trifluoromethyl)phenyl)acrylate]	3.33 ± 0.28	>100	
CC(=O)NCCc1c[nH]c2ccc(OC(=O)/C=C/c3ccc(Cl)cc3)cc12 [Compound 11, 3-(2-acetamidoethyl)-1H-indol-5-yl (E)-3-(4-chlorophenyl)acrylate]	2.91 ± 0.32	>100	
COc1ccc(/C=C/C(=O)Oc2ccc3[nH]cc(CCNC(C)=O)c3c2)cc1 [Compound 6, 3-(2-acetamidoethyl)-1H-indol-5-yl (E)-3-(4-methoxyphenyl)acrylate]	3.51 ± 0.27	60	
COc1ccc2[nH]cc(CCNC(C)=O)c2c1 [Melatonin, reference compound]			>100
CC(=O)NCCc1c[nH]c2ccc(OC(=O)/C=C/c3ccc(Cl)c(Cl)c3)cc12 [Compound 12, 3-(2-acetamidoethyl)-1H-indol-5-yl (E)-3-(3,4-dichlorophenyl)acrylate]	5.37 ± 0.38	51	
CC(=O)NCCc1c[nH]c2ccc(OC(=O)/C=C/c3ccc(Br)cc3)cc12 [Compound 10, 3-(2-acetamidoethyl)-1H-indol-5-yl (E)-3-(4-bromophenyl)acrylate]	2.53 ± 0.18	60	
COc1cccc(/C=C/C(=O)Oc2ccc3[nH]cc(CCNC(C)=O)c3c2)c1 [Compound 5, 3-(2-acetamidoethyl)-1H-indol-5-yl (E)-3-(3-methoxyphenyl)acrylate]	3.52 ± 0.27	83	
COc1cc(/C=C/C(=O)Oc2ccc3[nH]cc(CCNC(C)=O)c3c2)ccc1O [Compound 8, 3-(2-acetamidoethyl)-1H-indol-5-yl (E)-3-(4-hydroxy-3-methoxyphenyl)acrylate]	8.04 ± 0.66	>100	
CC(=O)NCCc1c[nH]c2ccc(OC(=O)/C=C/c3ccc(C)cc3)cc12 [Compound 3, 3-(2-acetamidoethyl)-1H-indol-5-yl (E)-3-(4-methylphenyl)acrylate]	4.44 ± 0.51	80	
C/C=C/C(=O)Oc1ccc2[nH]cc(CCNC(C)=O)c2c1 [Compound 1, 3-(2-acetamidoethyl)-1H-indol-5-yl (E)-2-butenoate]	8.64 ± 1.98	>100	
CC(=O)NCCc1c[nH]c2ccc(OC(=O)/C=C/c3cccc(C(F)(F)F)c3)cc12 [Compound 14, 3-(2-acetamidoethyl)-1H-indol-5-yl (E)-3-(3-(trifluoromethyl)phenyl)acrylate]	4.13 ± 0.39	>100	
COc1ccccc1/C=C/C(=O)Oc1ccc2[nH]cc(CCNC(C)=O)c2c1 [Compound 4, 3-(2-acetamidoethyl)-1H-indol-5-yl (E)-3-(2-methoxyphenyl)acrylate]	3.02 ± 0.20	64	
